Structures can show the parent of a compound that is named as a salt.
Tests used:
prepulse inhibition = experiment: Prepulse inhibition (PPI) of the auditory startle response, apomorphine-impairment model; details: for % PPI (mean ± SEM): averaged across prepulse levels
Protocol: Four standard startle chambers (San Diego Instruments, San Diego, CA) were used. […] The tube is mounted on a plastic frame, under which a piezoelectric accelerometer is mounted, which records and transduces the motion of the tube. Three days before drug testing the experimental subjects were each placed in one of the startle test chambers for a period of 10 minutes (without any startle stimuli) as an initial period of acclimation to the apparatus. Two days before drug testing the animals were again placed in the test chamber and then exposed to 12 startle stimuli and to each prepulse level 3 times (see below). This procedure was done to reduce the highly variable responses to the initial exposures to the startle stimuli as well as to ensure that the prepulse stimuli (alone) had no significant effect on the startle response. One day before drug testing, a full 60 trial PPI test session (as subsequently described for the drug testing experiments, see below) was conducted for all experimental subjects.
On the day of drug testing the rats were transported to the startle chamber room and left undisturbed for at least 30 min. […] After this period, the rats received 12 startle trials, 12 no-stimulus trials, and 12 trials of each of the prepulse/startle trials (see below) for a total of 60 trials. The intertrial interval ranged from 10 to 30 s, and the total session lasted about 25-30 min. The startle trials consisted of single 120 dB white noise bursts lasting 20 ms.
The prepulse inhibition trials consisted of a prepulse (20 ms burst of white noise with intensities of 75, 80, or 85 dB) followed, 100 ms later, by a startle stimulus (120 dB, 20 ms white noise). During the no-stimulus trial, no startle noise was presented, but the movement of the rat was recorded. This represented a control trial for detecting differences in overall activity. The 60 different trials were presented pseudo-randomly, ensuring that each trial was presented 12 times and that no two consecutive trials were identical. The resulting movement of the rat in the startle chamber was measured during 100 ms after startle stimulus onset (sampling frequency 1 kHz), rectified, amplified, and fed into a computer that determined the maximal response that occurred during the 100-ms period. Basal startle amplitude was determined as the mean amplitude of the 12 startle trials. Prepulse inhibition was calculated according to the formula 100−100%×(PPx/P120), in which PPx is the mean of the 12 prepulse inhibition trials (i.e., for each individual prepulse level), and p120 is the basal startle amplitude. The average level of PPI was also calculated (average of the responses to pp75, pp80, or pp85) and analyzed separately.

[1] = PK of S-viloxazine after single PO administration; details: for Tmax: 40 mg/kg
Protocol: Study Design. […] Food was returned 2 hours post-dose.
Test Article Formulation.

anxiety-like behavior = experiment: Elevated plus maze (EPM); assay type: in vivo, male Wistar rats; details: for Closed arm entries / Closed arm returns / Head dips in open arms / Stretch-attend postures / Time in closed arms / Time in open arms / Total arm entries: mean; for % Time in open arms / Open Arm Entries / Total distance travelled: mean ± S.E.M.
sleep/wake and cataplexy = assay type: in vivo, male DTA mice; details: amphetamine 2 mg/kg i.p.
behavioral signature = experiment: SmartCube phenotypic screening (class/subclass and DRFA similarity analysis); assay type: in vivo, male C57/B16 mice
Protocol: A study was conducted to evaluate the CNS-like efficacy of novel test compounds using the SmartCube® System.
Animals. Male C57/B16 mice from Taconic Laboratories (Germantown, NY) were used. Upon receipt, mice were group-housed in OPTIMice® ventilated cages with 4 mice per cage. Mice were acclimated to the colony room for at least one week prior to test, and subsequently tested at approximately 8-9 weeks of age. All animals were examined, handled, and weighed prior to initiation of the study to assure adequate health and suitability and to minimize nonspecific stress associated with manipulation. During the course of the study, 12/12 light/dark cycles were maintained. The room temperature was 20-23° C. with a relative humidity maintained between 30-70%. Chow and water were provided ad libitum for the duration of the study.
Test compounds. All compounds were administered orally at a dose volume of 10 mL/kg, 20 minutes prior to testing. Formulations were prepared fresh on day of testing and dosing was completed within one hour of formulation. Compounds were prepared according to the table below. Twelve mice were used in each treatment group:
SmartCube®. The SmartCube® system is designed to and can successfully measure numerous spontaneous behaviors and response to challenges in the same testing environment. The hardware includes force sensors and a number of aversive stimuli to elicit behavior. Three high-resolution video cameras provide constant 3D view of the mouse in the SmartCube® apparatus (SC) throughout the entire testing period. During the 45-minute test session the mice are exposed to a sequence of challenges. The cubes are cleaned between each run.
Digital videos of the subjects were processed through computer segmentation algorithms to fit geometrical models to each mouse frame image. The resulting fitted parameters were then analyzed using behavioral classifier algorithms to extract behavioral states, such as rearing, locomotion, and immobility. The data obtained in this way was used to define a drug signature for PGI's known reference compounds and establish a therapeutic class signature against which a test sample can be compared.
The data mining effort utilizes several analytical methods including Bayesian probabilistic density models and Decision trees. The algorithms consider ˜2,600 measures including frequency and duration of behavioral states such as grooming, rearing, etc., and many other features obtained during the test session.
Two major types of analyses are routinely conducted: Class and subclass.
Each reference drug was tested at multiple doses appropriate for that drug in mice.
Multiple analyses of the data were performed to quantitatively produce independent predictions of drug class, and drug subclass. The behavioral signatures of the test drugs were evaluated using these classifiers to predict potential therapeutic utility.
The results for the class and subclass analyses are presented as standardized bar charts with percentages that sum to 100 for each dose.
Similarity Analysis Using “Clouds Framework”. The outcome from SmartCube® is a large set of features (behavioral parameters) that can be used for various analyses. […] Therefore, we formed statistically independent combinations of the original features (further referred to as de-correlated features). Each de-correlated feature extracted information from the whole cluster of the original features, so the new feature space would have lower dimensionality. Next, we applied a proprietary feature ranking algorithm to score each feature for its discrimination power (ability to separate the two groups, e.g. vehicle from treatment). Ranking is an important part of our analyses because it weighs each feature change by its relevance. We applied a feature ranking algorithm, derived from support vector in the support vector machine learning method, to rank each feature.

cognitive flexibility = experiment: Operant set-shifting test against PCP; assay type: in vivo, male Wistar rats
Protocol: This assay serves as a model of impaired executive function associated with neuropsychiatric disorders like schizophrenia. The aim of this study was to evaluate COMPOUND C to reverse deficits observed with PCP on cognitive flexibility using the operant set-shifting test in the rat.
Substances & Formulation.
Doses were prepared by separate weighing (W/V). COMPOUND C formulations were prepared fresh on each dosing day and dosing was completed within 8 hours of formulation. Phencyclidine (PCP) hydrochloride, white powder, was dissolved in physiological saline by magnetic stirring, fresh each day of dosing.
Test System. 78 male Wistar rats were supplied for this study. • 72 rats, 8-9 weeks old, weighing 218-299 g at the beginning of the visual discrimination were submitted to the entire behavioral testing and assigned to match groups based on their performance during the second visual discrimination session. • 6 spare rats were submitted to lever pressing, side bias and visual discrimination but were discarded for the testing period (set-shift and reversal)
The experimental protocol which detects effects on behavioral flexibility follows that described by Floresco et al. (Behav. Brain Res., 190, 85-96 (2008)).
Apparatus. The apparatus consists of standard Med Associates ENV-008 Skinner boxes (30×25×30 cm) fitted with a house light, two retractable levers and a food pellet dispenser. The levers are located on either side of the food receptacle connected to the pellet dispenser. A light emitting diode stimulus light is positioned centrally above each lever and served as a stimulus for visual-cue discrimination learning.
Acquisition of lever-pressing (training). The aim of this phase was to train animals to lever-press to receive a food pellet reward.
Side bias. On the last day of training, the side bias for the rat was determined. The session was similar to the lever pressing session except that both levers were inserted into the chamber together (i.e. 90 levers presentations every 20 seconds). Again, the stimulus lights above each of the levers were not illuminated during this training session. On the first levers presentation, a food pellet was delivered after responding on either lever. Upon subsequent insertion of the levers, food was delivered only if the rat responded on the lever opposite to the one chosen initially. If the rat chose the same lever to the initial choice, no food was delivered. This continued until the rat chose the lever opposite to the one chosen initially. After choosing both levers, a new trial commenced. Thus, one trial for the side bias procedure consisted of responded on both levers. The sessions terminated after 90 levers presentations or after completion of 21 trials.
Visual-cue discrimination learning. After determining the side bias, animals were submitted to visual-cue discrimination learning.
A session began with both levers retracted and the chamber in darkness (the inter-trial state). Every 20 seconds, a trial began with illumination of one of the stimulus lights above one of the levers. 3 seconds later, the house light was illuminated, and both levers were inserted into the chamber. […] After food delivery, the house light remained on for another 4 seconds, after which the chamber returned to the inter-trial state. If the rat responded on the other lever (incorrect response), both levers retracted immediately without food delivery and the chamber reverted to the inter-trial state.

[2] = vehicle + apomorphine 0.5 mg/kg s.c.
[3] = S(−)-VLX in plasma, 40 mg/kg PO, fasted rats
[4] = 15 mg/kg PO 20 min prior to EPM
[5] = 30 mg/kg PO 20 min prior to EPM
[6] = 60 mg/kg PO 20 min prior to EPM
[7] = Study 1, 0.5 mg/kg i.p. 30 min before testing
[8] = Study 2, 0.5 mg/kg i.p. 30 min before testing
[9] = DRFA dose by dose, maximum (COMPOUND A: 90 and 120 mg/kg)
[10] = haloperidol 0.3 mg/kg + apomorphine
[11] = PCP 2 mg/kg s.c., first reversal session
[12] = PCP 2 mg/kg s.c., first set-shift session
[13] = PCP 2 mg/kg s.c., first set-shift to response discrimination session

## CN1CCc2cccc3c2[C@H]1Cc1ccc(O)c(O)c1-3 [APO, apomorphine, reference compound]
Prepulse inhibition; apomorphine 0.5 mg/kg s.c., all three prepulse levels
  effect on PPI compared to vehicle: significantly (p<0.05) diminished PPI
Prepulse inhibition; [2]
  Acoustic Startle (AU) (mean ± SEM): 1546.1 ± 260.5 AU
  % PPI (mean ± SEM): 33.4 ± 5.5 %

## CCOc1ccccc1OC[C@@H]1CNCCO1 [S(−)-VLX]
[1]; [3]
  AUC0-last: 3594 ± 1641 ng·h/mL
  AUC(0-inf): 3600 ng·h/mL
  AUCExtra: 0.20%
  AUMCExtra: 1.64%
  Cmax: 2973 ± 1201 ng/mL
  MRT0-inf: 1.12 h
  MRT0-last: 1.10 ± 0.106 h
  T1/2: 58.2 ± 16.3 min
  Tlast: 8.00 h
  Tmax: 25.2 min
[1]; S(−)-VLX in plasma, 40 mg/kg PO, fasted rats, listed as S-Viloxazine
  Tmax: 25 ± 8.64 min
[1]; after S-Viloxazine 40 mg/kg PO, LLOQ 1.5 ng/mL
  enantiomer R(+) VLX in plasma: not detectable at any time points
anxiety-like behavior; [4]
  Closed arm entries: 7.13
  Closed arm returns: 2.13
  Head dips in open arms: 1.38
  Stretch-attend postures: 17.13
  Time in closed arms: 289.33 s
  Time in open arms: 1.08 s
  Total arm entries: 7.25
  % Time in open arms: 0.36 ± 0.36%
  Open Arm Entries: 0.13 ± 0.13
  Total distance travelled: 1334.42 ± 90.911 cm
anxiety-like behavior; [5]
  Closed arm entries: 7.88
  Closed arm returns: 2.75
  Head dips in open arms: 3.38
  Stretch-attend postures: 19.38
  Time in closed arms: 277.60 s
  Time in open arms: 6.11 s
  Total arm entries: 8.25
  % Time in open arms: 2.04 ± 1.60%
  Open Arm Entries: 0.38 ± 0.26
  Total distance travelled: 1334.22 ± 68.23 cm
anxiety-like behavior; [6]
  Closed arm entries: 6.00
  Closed arm returns: 3.50
  Head dips in open arms: 2.88
  Stretch-attend postures: 16.38
  Time in closed arms: 279.11 s
  Time in open arms: 6.43 s
  Total arm entries: 6.50
  % Time in open arms: 2.14 ± 1.52%
  Open Arm Entries: 0.50 ± 0.38
  Total distance travelled: 1350.11 ± 96.17 cm
anxiety-like behavior; S-VLX 15, 30, 60 mg/kg p.o.
  anxiolytic activity: None of the doses of S-Viloxazine were associated with anxiolytic activity
anxiety-like behavior; S-VLX 15, 30, and 60 mg/kg p.o.
  total distance traveled vs vehicle: travelled a significantly shorter distance

## Cc1ncc2n1-c1ccc(Cl)cc1C(c1ccccc1F)=NC2 [midazolam]
anxiety-like behavior; [7]
  Closed arm entries: 14.13
  Closed arm returns: 1.38
  Head dips in open arms: 7.00
  Stretch-attend postures: 18.88
  Time in closed arms: 247.54 s
  Time in open arms: 18.47 s
  Total arm entries: 16.75
  % Time in open arms: 6.16 ± 1.96 %
  Open Arm Entries: 2.63 ± 0.78
  Total distance travelled: 2064.55 ± 111.02 cm
anxiety-like behavior; [8]
  Closed arm entries: 13.89
  Closed arm returns: 1.44
  Head dips in open arms: 5.67
  Stretch-attend postures: 20.33
  Time in closed arms: 259.11 s
  Time in open arms: 18.38 s
  Total arm entries: 16.22
  % Time in open arms: 6.13 ± 1.80 %
  Open Arm Entries: 2.33 ± 0.60
  Total distance travelled: 2052.96 ± 791.05 cm
anxiety-like behavior; midazolam 0.5 mg/kg i.p., both studies
  anxiolytic activity: exhibited anxiolytic activity

## C[C@H](N)Cc1ccccc1 [Amphetamine, d-Amphetamine sulfate, reference compound]
sleep/wake and cataplexy
  LMA: overall increase in LMA
  Levels of C: generally unaffected
  W and NREM time: increased W and decreased NREM
  latency to sleep onset: increased latency to the onset of both NREM and REM sleep

## CCOc1ccccc1OCC1CNCCO1 (racemic) [Viloxazine, (R,S)-2-[(2-ethoxyphenoxy)methyl]morpholine, reference compound]
Behavioral signature; 15 mg/kg PO
  behavioral activity (class/subclass analysis): low behavioral activity
Behavioral signature; 30 mg/kg PO
  behavioral activity (class/subclass analysis): moderate activity
Behavioral signature; 60 and 90 mg/kg PO
  behavioral activity (class/subclass analysis): high activity
Behavioral signature; [9]
  proximity to donepezil: around 100%
  proximity to thioperamide: around 100%
Behavioral signature; DRFA dose by dose, maximum reached
  proximity to memantine: 57%

## O=C(CCCN1CCC(O)(c2ccc(Cl)cc2)CC1)c1ccc(F)cc1 [HAL, haloperidol, reference compound]
Prepulse inhibition; [10]
  Acoustic Startle (AU) (mean ± SEM): 1774.3 ± 770.6 AU
  % PPI (mean ± SEM): 55.2 ± 6.3 ^+ %
Prepulse inhibition; haloperidol 0.3 mg/kg, 75, 80 and 85 dB prepulse levels
  effect on apomorphine-induced PPI deficit: significantly antagonized the effects of apomorphine on PPI

## c1ccc(C2(N3CCCCC3)CCCCC2)cc1 [PCP, Phencyclidine (PCP) hydrochloride]
Cognitive flexibility; [11]
  number of errors vs saline controls: +66%
  number of trials to reach the criterion vs saline controls: +35%
Cognitive flexibility; [12]
  perseverative errors (average): 35.8
  total errors (average): 37.8
Cognitive flexibility; [13]
  number of errors vs saline controls: +47%
  number of trials to reach the criterion vs saline controls: +45%
Cognitive flexibility; PCP, second session (drug-free)
  number of trials vs saline controls: +31%
